“Also recorded” adds a separate entry of the source. Residues, ends and D or L forms follow the SMILES beside them.
What was measured:
[1] = Biodistribution after i.p. injection (dot blot, FITC fluorescence); details: 25 mg/kg i.p.
[2] = test system: tail kinking and body contortion; experiment: Observation of side-effects after i.p. injection in rats; assay type: in vivo, rat; details: 20 mg/kg i.p.
Description: Referring now to FIG. 24. Biodistribution and side-effects of TAT-CBD3. […] Oxygenated blood was collected from a cardiac puncture. […] The 95% confidence limits are also indicated.

[3] = test system: capsaicin-induced meningeal blood flow changes; details: read-out: IC50 of percent inhibition of capsaicin-induced blood flow; dural application; versus averaged TAT-scramble; n=4-5
[4] = test system: depression/despair-associated behavior; experiment: Tail suspension test (TST); assay type: in vivo, C57BL6 mice; details: for Tail Suspension Test: Active: C57BL6 mice, 1 h after injection, 5 min test
Method: The light-dark box test and the elevated plus maze were used as measures of anxiety-associated behaviors. The tail suspension test was performed to evaluate despair- and depression-associated behavior.
Depression/Despair-behavior testing. Since rodents such as mice and rats display immobile postures when placed in inescapable stressful situations, immobility behavior in the tail suspension test (TST) or forced swim test (FST) is used as a measure of “depression” or “despair”-associated behavior. Furthermore, administering antidepressant treatments prior to testing reduces immobility behavior. Therefore TST and FST are often used to screen novel drugs for depressant or anti-depressant properties.
Tail suspension test as a measure of depression-associated behavior. Immediately following the EPM test, the TST was conducted according to standard procedure between 8:00 AM and 2:00 PM. Cryan, J. F., Mombereau, C., & Vassout, A. The tail suspension test as a model for assessing antidepressant activity: review of pharmacological and genetic studies in mice. Neurosci. Biobehay. Rev. 29, 571-625 (2005). Briefly, each mouse was suspended by the tail at a height of 40 cm by taping the rail to a horizontal bar so that the tail is vertical to the bar. Behavior was video recorded for 5 min and later analyzed by an experimenter, whom was blind to the treatments. […] If a mouse climbed its tail the mouse was gently pulled back down and the trial continued. Mice that climbed their tails for more than 20% of the trial (i.e. >60 seconds) were eliminated from the final analysis. Duration and frequency of immobility was the main parameters measured. Mice injected with the scrambled control peptide were immobile approximately 26% of the TST duration which is equivalent to baseline immobility durations (approximately 27%) observed in C57B16 mice in another recent study.

[5] = target: CaV2.2 current density in hippocampal neurons (Rattus norvegicus, UniProt Q02294); experiment: Whole-cell patch-clamp Ca2+ currents in hippocampal neurons; assay type: cell-based; details: co-expression with CRMP-2 in hippocampal neurons; +10 mV
Chain of CaV2.2 current density in hippocampal neurons (Q02294 whole entry): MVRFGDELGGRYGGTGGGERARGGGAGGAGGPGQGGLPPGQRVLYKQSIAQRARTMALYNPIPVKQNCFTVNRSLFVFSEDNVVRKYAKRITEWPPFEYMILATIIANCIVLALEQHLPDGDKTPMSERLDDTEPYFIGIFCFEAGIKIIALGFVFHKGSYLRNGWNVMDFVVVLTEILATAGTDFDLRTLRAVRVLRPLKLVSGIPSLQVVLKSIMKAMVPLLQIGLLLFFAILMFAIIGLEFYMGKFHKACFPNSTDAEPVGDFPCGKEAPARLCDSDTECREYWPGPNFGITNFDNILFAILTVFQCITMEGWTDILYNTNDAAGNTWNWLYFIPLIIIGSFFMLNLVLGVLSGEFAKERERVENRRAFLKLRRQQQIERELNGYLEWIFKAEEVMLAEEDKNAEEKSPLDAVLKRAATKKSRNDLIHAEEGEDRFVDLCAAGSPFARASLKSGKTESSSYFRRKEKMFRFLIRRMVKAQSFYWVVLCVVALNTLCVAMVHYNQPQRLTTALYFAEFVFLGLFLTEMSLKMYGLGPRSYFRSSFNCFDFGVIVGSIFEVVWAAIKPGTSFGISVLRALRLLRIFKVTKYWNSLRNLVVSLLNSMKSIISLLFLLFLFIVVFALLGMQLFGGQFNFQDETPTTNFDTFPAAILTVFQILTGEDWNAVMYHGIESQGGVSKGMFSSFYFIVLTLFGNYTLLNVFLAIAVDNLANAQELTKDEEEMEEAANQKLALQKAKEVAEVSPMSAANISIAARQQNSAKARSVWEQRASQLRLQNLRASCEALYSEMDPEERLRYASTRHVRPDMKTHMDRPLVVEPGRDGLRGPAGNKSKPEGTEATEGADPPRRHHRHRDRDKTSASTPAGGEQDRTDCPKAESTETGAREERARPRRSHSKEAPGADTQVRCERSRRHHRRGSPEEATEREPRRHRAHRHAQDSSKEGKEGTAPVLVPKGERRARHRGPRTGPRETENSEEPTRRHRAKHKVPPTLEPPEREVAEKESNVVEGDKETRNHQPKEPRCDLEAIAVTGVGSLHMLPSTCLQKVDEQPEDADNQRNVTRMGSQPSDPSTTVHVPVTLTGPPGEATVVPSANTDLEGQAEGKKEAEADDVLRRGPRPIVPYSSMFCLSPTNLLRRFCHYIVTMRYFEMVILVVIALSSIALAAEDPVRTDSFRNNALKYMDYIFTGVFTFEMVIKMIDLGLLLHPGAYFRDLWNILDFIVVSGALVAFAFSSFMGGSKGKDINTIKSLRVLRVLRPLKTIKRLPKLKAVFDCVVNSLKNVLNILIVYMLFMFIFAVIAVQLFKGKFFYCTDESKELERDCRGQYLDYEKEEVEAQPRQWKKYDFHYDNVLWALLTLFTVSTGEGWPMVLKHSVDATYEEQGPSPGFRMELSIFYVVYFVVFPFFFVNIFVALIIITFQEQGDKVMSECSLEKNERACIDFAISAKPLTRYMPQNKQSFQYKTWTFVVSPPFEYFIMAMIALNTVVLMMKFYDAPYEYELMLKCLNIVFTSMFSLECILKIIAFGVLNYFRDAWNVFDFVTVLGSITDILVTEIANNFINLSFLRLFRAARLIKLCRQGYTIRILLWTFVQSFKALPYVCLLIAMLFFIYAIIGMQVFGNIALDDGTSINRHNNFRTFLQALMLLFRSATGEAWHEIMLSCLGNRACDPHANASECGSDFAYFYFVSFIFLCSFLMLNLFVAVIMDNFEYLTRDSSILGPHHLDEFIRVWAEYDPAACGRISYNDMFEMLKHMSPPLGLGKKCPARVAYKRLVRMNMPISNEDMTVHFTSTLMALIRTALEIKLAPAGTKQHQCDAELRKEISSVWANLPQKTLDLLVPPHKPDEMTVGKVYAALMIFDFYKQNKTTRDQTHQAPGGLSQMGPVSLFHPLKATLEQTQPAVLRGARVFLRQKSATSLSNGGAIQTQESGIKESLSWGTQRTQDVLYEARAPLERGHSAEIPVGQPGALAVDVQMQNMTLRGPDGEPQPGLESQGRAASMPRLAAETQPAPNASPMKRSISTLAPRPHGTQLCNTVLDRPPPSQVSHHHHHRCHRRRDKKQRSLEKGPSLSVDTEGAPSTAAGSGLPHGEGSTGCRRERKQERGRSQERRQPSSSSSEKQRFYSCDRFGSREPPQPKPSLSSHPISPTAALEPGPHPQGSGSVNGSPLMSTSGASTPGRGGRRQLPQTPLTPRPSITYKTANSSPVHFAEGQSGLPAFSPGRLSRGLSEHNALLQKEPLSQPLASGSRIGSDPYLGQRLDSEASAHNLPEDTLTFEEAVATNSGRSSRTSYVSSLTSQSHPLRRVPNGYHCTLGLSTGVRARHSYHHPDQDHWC
Chain of CaV2.2 current density in hippocampal neurons (P54287 whole entry partner): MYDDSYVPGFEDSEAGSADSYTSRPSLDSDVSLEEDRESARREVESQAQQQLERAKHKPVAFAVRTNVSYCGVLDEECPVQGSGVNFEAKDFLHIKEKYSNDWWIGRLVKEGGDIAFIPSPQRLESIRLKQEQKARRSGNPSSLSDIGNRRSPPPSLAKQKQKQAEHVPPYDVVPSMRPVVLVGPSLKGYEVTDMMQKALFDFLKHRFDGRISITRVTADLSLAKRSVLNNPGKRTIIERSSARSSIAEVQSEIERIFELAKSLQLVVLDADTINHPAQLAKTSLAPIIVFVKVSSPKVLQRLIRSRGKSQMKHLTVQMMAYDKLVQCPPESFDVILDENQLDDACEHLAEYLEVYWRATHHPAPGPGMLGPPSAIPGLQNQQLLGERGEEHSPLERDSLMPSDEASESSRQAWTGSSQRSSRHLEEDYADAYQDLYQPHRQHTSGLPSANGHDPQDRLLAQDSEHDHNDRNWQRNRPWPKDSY
Chain of CaV2.2 current density in hippocampal neurons (P54290 25-944 partner limits assumed): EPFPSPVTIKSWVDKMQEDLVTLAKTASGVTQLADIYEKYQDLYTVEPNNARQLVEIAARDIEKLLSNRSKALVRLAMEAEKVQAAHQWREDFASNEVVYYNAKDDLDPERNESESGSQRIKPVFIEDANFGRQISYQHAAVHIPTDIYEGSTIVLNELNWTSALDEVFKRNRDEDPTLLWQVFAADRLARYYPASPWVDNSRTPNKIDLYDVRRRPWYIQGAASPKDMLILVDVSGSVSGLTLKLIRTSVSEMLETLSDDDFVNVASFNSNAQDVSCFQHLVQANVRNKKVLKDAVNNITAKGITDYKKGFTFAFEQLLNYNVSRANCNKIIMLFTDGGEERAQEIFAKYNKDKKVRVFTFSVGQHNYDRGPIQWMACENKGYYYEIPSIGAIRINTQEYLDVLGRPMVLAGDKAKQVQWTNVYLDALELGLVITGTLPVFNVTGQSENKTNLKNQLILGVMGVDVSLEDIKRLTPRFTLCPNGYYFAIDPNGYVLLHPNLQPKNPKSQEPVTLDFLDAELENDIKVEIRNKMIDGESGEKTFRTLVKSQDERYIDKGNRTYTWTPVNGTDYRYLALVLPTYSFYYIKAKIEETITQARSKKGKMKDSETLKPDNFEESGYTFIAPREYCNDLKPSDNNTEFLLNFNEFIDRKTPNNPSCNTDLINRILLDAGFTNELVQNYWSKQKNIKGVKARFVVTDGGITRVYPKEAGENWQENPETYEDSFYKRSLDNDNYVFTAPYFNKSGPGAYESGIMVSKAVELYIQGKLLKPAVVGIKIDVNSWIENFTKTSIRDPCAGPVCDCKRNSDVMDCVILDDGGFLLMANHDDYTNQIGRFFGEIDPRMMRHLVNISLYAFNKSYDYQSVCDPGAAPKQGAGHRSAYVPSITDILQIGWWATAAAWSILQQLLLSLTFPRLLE
Chain of CaV2.2 current density in hippocampal neurons (P54290 945-1091 partner limits assumed): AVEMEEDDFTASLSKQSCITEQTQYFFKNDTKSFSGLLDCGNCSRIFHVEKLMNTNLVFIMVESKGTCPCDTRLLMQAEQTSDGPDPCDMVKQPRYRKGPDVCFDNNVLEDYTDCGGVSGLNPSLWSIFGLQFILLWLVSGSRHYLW

[6] = test system: depolarization-induced Ca2+ influx in hippocampal neurons; experiment: Fura-2 calcium imaging of hippocampal neurons; assay type: cell-based, rat; details: expressed from plasmid; KCl 30 mM; Fura-2AM
Method: Referring now to FIG. 19. Overexpressed CBD3 or TAT-CBD3 reduces Ca^2+ influx predominantly via N-Type Ca^2+ channels. (FIGS. 19.A and 19.B) hippocampal neurons cultured for 5 days in vitro were transfected with DNA constructs encoding CBD3 or a scramble sequence using Lipofectamine, and then loaded with the ratiometric Ca^2+-sensitive dye Fura-2AM (3 μM). Changes in [Ca^2+]c, in response to plasma membrane depolarization with potassium chloride (KCl, 30 mM), were recorded using time-lapse, wide-field fluorescence microscopy. […] In both panels, n indicates the number of neurons from which Fura-2 fluorescence was recorded. […] (FIG. 19.D) Ca^2+ influx was monitored in DRG neurons using Fura-2AM. […] Changes in the Fura-2 F340/F380 were monitored for 10 min following stimulation with 45 mM KCl. […]
Isolation and maintenance of primary hippocampal neurons for calcium imaging. […] For fluorescence measurements, neurons were plated on glass-bottomed Petri dishes without preplated glia as previously described. […]
Calcium imaging. […] Osmolarity of the solutions was measured with the osmometer Osmette II™ (Precision Systems Inc., Natick, Mass.). […] Fluorescence was recorded through a 505 nm dichroic mirror at 535±25 nm. The fluorescence images were taken every 5 seconds during the time-course of the experiment using the minimal exposure time that provided acceptable image quality. […]

| Compound | tissue distribution (dot blot, anti-TAT antibody) ([1]; 15 min post-injection) | tissue distribution (dot blot, anti-TAT antibody) ([1]; 1 h post-injection) | duration of contortion and tail kinking [2] | onset of contortion and tail kinking after injection [2] | side-effects observed [2] | number of episodes of contortion and tail kinking ([2]; 60 min observation) | IC50 [3] | Tail Suspension Test: Active ([4]; 0.1 mg/kg i.p.) | Tail Suspension Test: Active ([4]; 1 mg/kg i.p.) | Tail Suspension Test: Active ([4]; 10 mg/kg i.p.) | TST time spent immobile and frequency of immobile episodes ([4]; any dose, compared to TAT-Scramble) | CRMP-2-mediated increase in CaV2.2 current density [5] | depolarization-induced calcium influx [6] |
| --- | --- | --- | --- | --- | --- | --- | --- | --- | --- | --- | --- | --- | --- |
| CC(C)C[C@H](NC(=O)CNC(=O)[C@H](CCCNC(=N)N)NC(=O)[C@@H]1CCCN1C(=O)[C@@H](NC(=O)CNC(=O)[C@H](CCCNC(=N)N)NC(=O)[C@H](CC(C)C)NC(=O)[C@H](CCC(=O)O)NC(=O)[C@H](C)NC(=O)[C@H](CC(C)C)NC(=O)[C@H](CCCNC(=N)N)NC(=O)[C@H](CO)NC(=O)[C@H](CCCNC(=N)N)NC(=O)[C@H](C)NC(=O)[C@H](CCCNC(=N)N)NC(=O)[C@H](CCCNC(=N)N)NC(=O)[C@H](CCCNC(=N)N)NC(=O)[C@H](CCC(N)=O)NC(=O)[C@H](CCCNC(=N)N)NC(=O)[C@H](CCCNC(=N)N)NC(=O)[C@H](CCCCN)NC(=O)[C@H](CCCCN)NC(=O)[C@H](CCCNC(=N)N)NC(=O)CNC(=O)[C@@H](N)Cc1ccc(O)cc1)C(C)C)C(=O)O [TAT-CBD3] (H-YGRKKRRQRRRARSRLAELRGVPRGL-OH; N-terminus and C-terminus assumed) | detected in spleen and largely concentrated in lumbar dorsal root ganglion (DRG) and lumbar section of the spinal cord | also detected in kidney, brain, spinal cord and was abundant in the DRG | dissipated fifteen seconds following their first appearance | about 15 seconds | whole-body lordosis-like contortion (black arrow) and tail kinking; also recorded: Transient contortions were observed | Only a single episode of contortion and tail kinking movement | 3.1 ± 1.1 µM | 238.1 ± 13.6 s | 235.2 ± 13.0 s | 239.7 ± 10.9 s | neither time spent immobile, nor frequencies of immobile episodes were altered | – | – |
| ARSRLAELRGVPRGL (CBD3) | – | – | – | – | – | – | – | – | – | – | – | eliminated | reduced depolarization-induced calcium influx; also recorded: blocked depolarization-induced calcium signaling |
